Measurements: patent US11298361B2, “Fused benzazepines for treatment of Tourette's Syndrome” (EMALEX BIOSCIENCES, INC., priority 2012, dated 2022)
Read-outs that look alike come from different tables or passages of the source.

Legend:
[1] = biological target: D1/D5 receptor (^3H-23390); settings: radioligand ^3H-23390; cited from earlier work
CAR = settings: cited from earlier work
D2 receptor (^3H-Spip) = D2 receptor (^3H-Spip) (Homo sapiens, UniProt P14416)
[2] = system: adenosine, benzodiazepine, glutamate/AMPA/kainate, GABA, muscarinic, nicotinic, opiate, alpha- or beta-adrenergic sites; experiment: Binding at other receptor sites
D1 receptors = experiment: In vitro studies on cAMP second messenger (adenylate cyclase); type: biochemical
Procedure: (§1) Activation of D1 receptors by dopamine and similar agonists stimulates the production of cyclic AMP (cAMP) via activation of adenylate cyclase. […] To ensure that there was no species specificity to the receptor binding profile, ecopipam's potency and selectivity were evaluated using cloned human receptors. […] Positron emission tomography (PET) studies using radiolabeled ecopipam have been conducted in healthy volunteers (Karlsson et al., Psychopharmacol. 121:300-308, 1995).

hD1/hD5 receptors = experiment: Binding to cloned human receptors
Procedure: as §1

[3] = system: adult patients with Tourette's Syndrome; experiment: Open-label clinical study in adult patients with Tourette's Syndrome; type: in vivo, human
Procedure: A clinical program was carried out to test the safety, tolerability, and activity of ecopipam in adult patients with Tourette's Syndrome. A multicenter, open-label, nonrandomized study in 25 to 30 subjects was conducted to assess the activity and safety of ecopipam in subjects with TS. […] Assessment was performed at each visit. A follow-up visit was conducted via telephone at Week 10 to record any adverse events. Ecopipam was administered daily before bedtime at 50 mg/day for Week 1 and Week 2 and at 100 mg/day for Weeks 3-8. This treatment regimen is within the scope of the present invention; the compositions and various formulations described herein can be administered as described in this Example. The activity of ecopipam was measured using the following clinical rating scales: (1) Yale Global Tic Severity Scale (YGTSS; data based on this scoring system are presented below); (2) ADHD self-report symptom checklist (ASRS); (3)Yale-Brown Obsessive Compulsive Scale (YBOCS); (4) Premonitory Urge for […]; and (6) Clinical Global Impression Improvement and Severity Scales (CGI). The demographics of the study population were as follows: eighty three percent of the subjects were male (15 out of 18); fifteen were Caucasian, two were African-American, and one was an Asian/Pacific Islander. […] Four patients reported AEs that were rated as severe and included the following: sedation, insomnia, decreased appetite, hypersensitivity, cold sweat, and feeling jittery. The following AEs were rated mild to moderate and were reported in more than three subjects: fatigue, insomnia, nausea, sedation, headache, restlessness, anxiety, muscle twitching, dysphoria, and sleeplessness. These side effects are similar to those seen in other studies with ecopipam and were not unexpected.

D1/D5 receptors = settings: rat brain homogenates, low concentrations; cited from earlier work
D1 receptor = settings: rats, D1-agonist discriminative stimulus; cited from earlier work
[4] = biological target: dopamine D1 receptors in human brain (Homo sapiens, UniProt P21728); settings: radiolabeled ecopipam, healthy volunteers; cited from earlier work
[5] = radioligand ^3H-Spip; read-out: Ki (nM) ^3H-Spip; cited from earlier work

Sequence of D2 receptor (^3H-Spip) (P14416 whole entry): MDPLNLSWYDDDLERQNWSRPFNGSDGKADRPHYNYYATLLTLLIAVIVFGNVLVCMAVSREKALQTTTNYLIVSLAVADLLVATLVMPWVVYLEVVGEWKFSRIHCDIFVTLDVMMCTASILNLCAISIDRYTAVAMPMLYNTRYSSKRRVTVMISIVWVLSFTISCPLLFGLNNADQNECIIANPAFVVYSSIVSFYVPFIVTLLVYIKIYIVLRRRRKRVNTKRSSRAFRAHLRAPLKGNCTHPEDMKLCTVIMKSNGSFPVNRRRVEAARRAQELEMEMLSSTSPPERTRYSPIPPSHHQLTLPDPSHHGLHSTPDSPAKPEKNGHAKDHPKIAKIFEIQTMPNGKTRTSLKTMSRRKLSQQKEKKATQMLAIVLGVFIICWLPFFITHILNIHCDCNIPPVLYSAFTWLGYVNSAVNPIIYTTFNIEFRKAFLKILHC
Sequence of dopamine D1 receptors in human brain (P21728 whole entry): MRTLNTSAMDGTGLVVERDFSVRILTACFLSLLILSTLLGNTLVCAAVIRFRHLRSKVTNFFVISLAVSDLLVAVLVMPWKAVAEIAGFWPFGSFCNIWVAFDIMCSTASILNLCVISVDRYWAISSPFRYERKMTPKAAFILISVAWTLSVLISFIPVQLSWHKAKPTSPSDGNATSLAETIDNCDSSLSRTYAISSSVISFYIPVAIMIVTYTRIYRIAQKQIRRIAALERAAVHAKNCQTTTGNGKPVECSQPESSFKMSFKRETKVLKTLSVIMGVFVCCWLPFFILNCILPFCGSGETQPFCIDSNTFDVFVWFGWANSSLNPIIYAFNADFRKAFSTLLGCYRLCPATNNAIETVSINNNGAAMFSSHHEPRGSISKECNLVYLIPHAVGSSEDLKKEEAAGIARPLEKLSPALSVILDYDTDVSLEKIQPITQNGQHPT

In the case of `CN1CCc2cc(Cl)c(O)cc2C2c3ccccc3CC21` (stereo not drawn) [Q=CH2, n=0, trans, X=Cl, Y=OH], the Ki [1] is listed as 10 nM.

For `CN1CCc2cc(Cl)c(O)cc2[C@H]2c3ccccc3CC[C@@H]21` [Q=CH2, n=1, 7b(R):7a(S)(−), X=Cl, Y=OH], the “CAR (MED), po” value (CAR) is listed as 30 (po).

For `CN1CCc2cc(Cl)c(O)cc2[C@@H]2c3ccccc3CC[C@H]21` [Q=CH2, n=1, 7b(S):7a(R)(+), X=Cl, Y=OH], the “CAR (MED), po” value (CAR) is given as >30 (po).

For `COc1cc2c(cc1O)C1c3ccccc3CCC1N(C)CC2` (stereo not drawn) [Q=CH2, n=1, cis, X=CH3O, Y=OH], the Ki [1] is listed as 6450 nM and the Ki (D2 receptor (^3H-Spip); read-out: Ki (nM) ^3H-Spip; radioligand ^3H-Spip; cited from earlier work) is listed as > 100000 nM.

In the case of `Cc1cc2c(cc1O)C1c3ccccc3CCC1N(C)CC2` (stereo not drawn) [Q=CH2, n=1, trans, X=CH3, Y=OH], the Ki [1] is listed as 119 nM.

In the case of `COc1cc2c(cc1O)C1c3ccccc3CCC1N(C)CC2` (stereo not drawn) [Q=CH2, n=1, trans, X=CH3O, Y=OH], the Ki [1] is given as 23 nM, the CAR (MED), po (CAR) is given as 30 mg/kg and the “CAR (MED), sc” value (CAR; in mg/kg (unit assumed)) is given as 0.3-1.

For `CN1CCc2cc(Cl)c(N)cc2C2c3ccccc3CCC21` (stereo not drawn) [Q=CH2, n=1, trans, X=Cl, Y=NH2], the Ki [1] is given as 70 nM and the “CAR (MED), po” value (CAR) is given as 3 (po).

For `CN1CCc2cc(Cl)c(O)cc2C2c3ccccc3CCC21` (stereo not drawn) [Q=CH2, n=1, trans, X=Cl, Y=OH], the CAR (MED), po (CAR) is given as 30 mg/kg and the “CAR (MED), sc” value (CAR; in mg/kg (unit assumed)) is given as 0.3.

For `CN1CCc2ccc(O)cc2C2c3ccccc3CCC21` (stereo not drawn) [Q=CH2, n=1, trans, X=H, Y=OH], the Ki [1] is given as 80 nM.

In the case of `COc1cc2c(cc1O)C1c3ccccc3CCCC1N(C)CC2` (stereo not drawn) [Q=CH2, n=2, trans, X=CH3O, Y=OH], the Ki [1] is given as 292 nM, the Ki (D2 receptor (^3H-Spip); [5]) is given as > 100000 nM and the “CAR (MED), sc” value (CAR) is given as 10 (sc).

For `COc1cc2c(cc1O)CCN(C)C1CCCc3ccccc3C21` (stereo not drawn) [Q=CH2, n=2, trans, X=HO, Y=CH3O], the Ki [1] is given as 7730 nM, the Ki (D2 receptor (^3H-Spip); [5]) is given as > 100000 nM and the “CAR (MED), sc” value (CAR) is given as 10 (sc).

For `CN1CCc2ccc(O)cc2C2c3ccccc3OCC21` (stereo not drawn) [Q=O, n=1, trans, X=H, Y=OH], the Ki [1] is listed as 121 nM.

For `CN1CCc2cc(Cl)c(O)cc2[C@H]2c3ccccc3CC[C@@H]21` [ecopipam, (−)-trans-6,7,7a,8,9,13b-hexahydro-3-chloro-2-hydroxy-N-methyl-5H-benzo [d]-naphtho-[2,1-b]azepine], the “Concentration multiple at which it did not bind to other sites” value [2] was > 700 fold, the “Functional action on cAMP second messenger” value (D1 receptors) was “antagonist” and the “Affinity for hD1/hD5 receptors” value (hD1/hD5 receptors) was “high affinity”. For the same compound, the “Patients with at least one grade change in CGI-S score” value ([3]; 9 of the 15 patients, p≤0.01 Student's t test) was 60%, the “Subjects reporting adverse events” value ([3]; 18 subjects) was “All subjects reported at least one adverse event” and the “Change in YGTSS scores, intent to treat analysis” value ([3]; entire population n=18) was “statistically significant changes were evident”. For the same compound, the “Change in YGTSS scores (motor, phonic, total severity), baseline to last visit” value ([3]; fifteen patients who completed the trial, 50 mg/day Weeks 1-2, 100 mg/day Weeks 3-8) was “highly statistically significant (Paired t-Test p<0.001) reduction”, the “Changes in lab tests” value ([3]; human, in vivo) was “none were of clinical significance” and the “Changes in vital signs” value ([3]; human, in vivo) was “no clinically significant changes in vital signs”. The Serious adverse events ([3]; requiring medical intervention) was “no serious adverse events”, the “Patients reporting AEs rated as severe” value ([3]; sedation, insomnia, decreased appetite, hypersensitivity, cold sweat, feeling jittery) was “Four” and the “Affinity for D1/D5 receptors” value (D1/D5 receptors) was “high affinity”. For the same compound, the “Action on dopamine-agonist-induced behaviors” value (D1 receptor) was “selective D1 antagonist” and the “PET binding in the human brain” value [4] was “specific binding in the human brain”.
